Source: US5350677A, “Method of assaying phosphatase with 3,4-dinitrophenylphosphate” (Iatron Laboratories, Inc., priority 1989, dated 1994)

How the values were obtained:
[1] = Stability (decomposition) of substrate in aqueous solution; type: physicochemical
[2] = without solubilizing auxiliary agent; cited from earlier work

Structure (SMILES) | decomposition ratio ([1]; enzyme reaction conditions (pH 5, 37° C.) for one hour, 60 min) [%] | stability of aqueous solution ([1]; under ice-cooling) | solubility in water [2]
CC(=O)N[C@H]1[C@H](Oc2ccc([N+](=O)[O-])c([N+](=O)[O-])c2)O[C@H](CO)[C@@H](O)[C@@H]1O [3,4-DNG, 3,4-dinitrophenyl-N-acetyl-β-D-glucosaminide] | 1.5 | stable | 
CC(=O)N[C@H]1[C@H](Oc2ccc([N+](=O)[O-])cc2Cl)O[C@H](CO)[C@@H](O)[C@@H]1O [2-chloro-4-nitrophenyl-N-acetyl-β-D-glucosaminide] |  |  | difficult to dissolve in water
